In general, Ki refers to the dissociation constant of the complex between target and ligand, obtained from inhibition or displacement.

Experiment [1] has as its system H929 multiple myeloma tumor line. Description: In vitro cytotoxicity, MTT assay (Example B, Method A). Conditions: H929 cells, 48 hours exposure, read-out: C50. Type of experiment: cell-based. As for the experimental part:
The cytotoxicity studies were carried out on the H929 multiple myeloma tumor line.
The cells are distributed onto microplates and exposed to the test compounds for 48 hours. The cell viability is then quantified by a colorimetric assay, the Microculture Tetrazolium Assay (Carmichael et al, Cancer Res. 1987, 47, 939-942).
The results are expressed in C50 which means concentration corresponding to […] of effect/inhibition.

The target of another experiment is Mcl-1 protein (UniProtKB Q07820) (Homo sapiens (Human), UniProt Q07820). Description: Inhibition of Mcl-1 by the fluorescence polarisation assay (Example A, Method A). It is filed as binding. Conditions: fluorescence polarization assay. The essentials: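 Protein (5 nM) and fluorescein-tagged peptide tracer (1 nM) incubated with 11-point compound series for 2 h at room temperature in HEPES/NaCl/Tween 20 buffer, pH 7.4, 5% DMSO. Displacement read as decrease in polarisation; IC50 fitted by 4-parameter logistic, converted to Ki (cKi or eKi).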
A general note: In fluorescence polarisation assays a small probe gives low polarisation when free and higher when bound to something large.

Like-named read-outs stand apart in the source and are kept apart here.

Sequence of Mcl-1 protein (Q07820 whole entry): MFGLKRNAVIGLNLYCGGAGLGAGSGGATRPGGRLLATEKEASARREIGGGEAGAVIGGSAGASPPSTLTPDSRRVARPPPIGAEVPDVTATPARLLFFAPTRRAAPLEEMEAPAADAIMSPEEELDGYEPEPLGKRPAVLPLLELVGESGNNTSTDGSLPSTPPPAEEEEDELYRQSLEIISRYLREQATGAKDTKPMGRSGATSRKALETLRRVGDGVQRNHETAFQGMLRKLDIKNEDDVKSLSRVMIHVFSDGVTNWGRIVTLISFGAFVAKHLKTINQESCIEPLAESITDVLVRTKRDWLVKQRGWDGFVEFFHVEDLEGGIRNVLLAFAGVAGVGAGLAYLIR

Consider `O=C(O)[C@]1(Nc2cccc(Cl)c2)CC[C@]2(CC1)C(COCCc1ccccc1)=Cc1ccccc12` [Example 409, (1s,4s)-4-(3-chloroanilino)-2′-[(2-phenylethoxy)methyl]spiro[cyclohexane-1,1′-indene]-4-carboxylic acid], for which the IC50 in experiment [1] (Homo sapiens, NCI-H929, 48 h) worked out at 30000 nM. For the same compound, at Mcl-1 protein, the Ki is 155 nM.
For `O=C(O)[C@]1(Nc2cccc(Cl)c2)CC[C@@]2(CC1)c1ccccc1CC2CCCOc1ccncc1` (stereo partly shown) [Example 426, (1r,4r)-4-(3-chloroanilino)-2′-{3-[(pyridin-4-yl)oxy]propyl}-2′,3′-dihydrospiro[cyclohexane-1,1′-indene]-4-carboxylic acid] the same measures were 16500 nM and 55.3 nM.
Consider `O=C(O)[C@]1(Nc2cccc(Cl)c2)CC[C@@]2(CC1)c1ccccc1C[C@H]2CCCOc1ccnc2ccsc12` [Example 439, (1r,2′R,4R)-4-(3-chloroanilino)-2′-{3-[(thieno[3,2-b]pyridin-7-yl)oxy]propyl}-2′,3′-dihydrospiro[cyclohexane-1,1′-indene]-4-carboxylic acid], for which the IC50 in experiment [1] (Homo sapiens, NCI-H929, 48 h) was found to be 3880 nM. On Mcl-1 protein, the Ki was found to be 68.6 nM.
On to `O=C(O)[C@]1(Nc2cccc(Cl)c2)CC[C@@]2(CC1)c1ccccc1C[C@@H]2CCCOc1ccnc2ccsc12` [Example 440, (1r,2′S,4S)-4-(3-chloroanilino)-2′-{3-[(thieno[3,2-b]pyridin-7-yl)oxy]propyl}-2′,3′-dihydrospiro[cyclohexane-1,1′-indene]-4-carboxylic acid], for which, in experiment [1] (Homo sapiens, NCI-H929, 48 h), the IC50 stood at 3480 nM. Besides, the Ki at Mcl-1 protein is 47 nM.
For `O=C(O)[C@]1(Nc2cccc(Cl)c2)CC[C@]2(CC1)C(CCCOc1ccnc3ccsc13)=Cc1ccccc12` [Example 442, (1r,4r)-4-(3-chloroanilino)-2′-{3-[(thieno[3,2-b]pyridin-7-yl)oxy]propyl}spiro[cyclohexane-1,1′-indene]-4-carboxylic acid], the IC50 in experiment [1] (Homo sapiens, NCI-H929, 48 h) amounted to 5790 nM. Besides, the Ki at Mcl-1 protein stood at 107 nM.
The corresponding values for `O=C(O)[C@]1(Nc2cccc(Cl)c2)CC[C@@]2(CC1)c1ccccc1CC2CCCOc1ccnc2ccccc12` (stereo partly shown) [Example 444, (1r,4r)-4-(3-chloroanilino)-2′-{3-[(quinolin-4-yl)oxy]propyl}-2′,3′-dihydrospiro[cyclohexane-1,1′-indene]-4-carboxylic acid] are 5440 nM and 85.2 nM.
In the case of `O=C(O)[C@]1(Nc2cccc(Cl)c2)CC[C@@]2(CC1)c1ccccc1CC2CCCOc1ccnc2[nH]ccc12` (stereo partly shown) [Example 445, (1r,4r)-4-(3-chloroanilino)-2′-{3-[(1H-pyrrolo[2,3-b]pyridin-4-yl)oxy]propyl}-2′,3′-dihydrospiro[cyclohexane-1,1′-indene]-4-carboxylic acid], the IC50 in experiment [1] (Homo sapiens, NCI-H929, 48 h) is 5350 nM. Further, on Mcl-1 protein, the Ki was determined as 75.3 nM.
Consider `Cc1cnccc1OCCC[C@@H]1Cc2ccccc2[C@]12CC[C@@](Nc1cccc(Cl)c1)(C(=O)O)CC2` [Example 448, (1r,2′R,4R)-4-(3-chloroanilino)-2′-{3-[(3-methylpyridin-4-yl)oxy]propyl}-2′,3′-dihydrospiro[cyclohexane-1,1′-indene]-4-carboxylic acid], for which, in experiment [1] (Homo sapiens, NCI-H929, 48 h), the IC50 worked out at 10500 nM. Besides, the Ki at Mcl-1 protein worked out at 65.4 nM.
The corresponding values for `Cc1cnccc1OCCC[C@H]1Cc2ccccc2[C@]12CC[C@@](Nc1cccc(Cl)c1)(C(=O)O)CC2` [Example 449, (1r,2′S,4S)-4-(3-chloroanilino)-2′-{3-[(3-methylpyridin-4-yl)oxy]propyl}-2′,3′-dihydrospiro[cyclohexane-1,1′-indene]-4-carboxylic acid] are 9270 nM and 80 nM.
With `O=C(O)[C@]1(Nc2cccc(Cl)c2)CC[C@@]2(CC1)c1ccccc1CC2CCCOc1ccnc2c1CCCC2` (stereo partly shown) [Example 451, (1r,4r)-4-(3-chloroanilino)-2′-{3-[(5,6,7,8-tetrahydroquinolin-4-yl)oxy]propyl}-2′,3′-dihydrospiro[cyclohexane-1,1′-indene]-4-carboxylic acid], in experiment [1] (Homo sapiens, NCI-H929, 48 h), the IC50 amounted to 3490 nM. Also, at Mcl-1 protein, the Ki was found to be 49.7 nM.
For `O=C(O)[C@]1(Nc2cccc(Cl)c2)CC[C@@]2(CC1)c1ccccc1CC2CCCOc1ccnc2c1CCC2` (stereo partly shown) [Example 452, (1r,4r)-4-(3-chloroanilino)-2′-{3-[(6,7-dihydro-5H-cyclopenta[b]pyridin-4-yl)oxy]propyl}-2′,3′-dihydrospiro[cyclohexane-1,1′-indene]-4-carboxylic acid] the same measures were 2440 nM and 30 nM.
`O=C(O)[C@]1(Nc2cccc(Cl)c2)CC[C@@]2(CC1)c1ccccc1CC2CCCOc1ccncc1C(F)(F)F` (stereo partly shown) [Example 463, (1r,4r)-4-(3-chloroanilino)-2′-(3-{[3-(trifluoromethyl)pyridin-4-yl]oxy}propyl)-2′,3′-dihydrospiro[cyclohexane-1,1′-indene]-4-carboxylic acid]: the IC50 in experiment [1] (Homo sapiens, NCI-H929, 48 h) turned out to be 8230 nM. In addition, the Ki on Mcl-1 protein turned out to be 59.2 nM.
As to `O=C(O)[C@]1(Nc2cccc(Cl)c2)CC[C@@]2(CC1)c1ccccc1CC2CCCOc1ccncc1C1CC1` (stereo partly shown) [Example 464, (1r,4r)-4-(3-chloroanilino)-2′-{3-[(3-cyclopropylpyridin-4-yl)oxy]propyl}-2′,3′-dihydrospiro[cyclohexane-1,1′-indene]-4-carboxylic acid], in experiment [1] (Homo sapiens, NCI-H929, 48 h), the IC50 came out at 14800 nM. The Ki on Mcl-1 protein was determined as 49.1 nM.
Consider `C[C@@H]1CCc2ncnc(OCCCC3Cc4ccccc4[C@]34CC[C@@](Nc3cccc(Cl)c3)(C(=O)O)CC4)c21` (stereo partly drawn) [Example 472, (1r,4R)-4-(3-chloroanilino)-2′-(3-{[(5R)-5-methyl-6,7-dihydro-5H-cyclopenta[d]pyrimidin-4-yl]oxy}propyl)-2′,3′-dihydrospiro[cyclohexane-1,1′-indene]-4-carboxylic acid], for which the IC50 in experiment [1] (Homo sapiens, NCI-H929, 48 h) was found to be 5040 nM. In addition, the Ki on Mcl-1 protein turned out to be 33 nM.
The corresponding values for `Cc1cc2c(OCCC[C@@H]3Cc4ccccc4[C@]34CC[C@@](Nc3cccc(Cl)c3)(C(=O)O)CC4)cccc2[nH]1` [Example 481, (1r,2′R,4R)-4-(3-chloroanilino)-2′-{3-[(2-methyl-1H-indol-4-yl)oxy]propyl}-2′,3′-dihydrospiro[cyclohexane-1,1′-indene]-4-carboxylic acid] are 5080 nM and 72.1 nM.
On to `Cc1cc2c(OCCC[C@H]3Cc4ccccc4[C@]34CC[C@@](Nc3cccc(Cl)c3)(C(=O)O)CC4)cccc2[nH]1` [Example 482, (1r,2′S,4S)-4-(3-chloroanilino)-2′-{3-[(2-methyl-1H-indol-4-yl)oxy]propyl}-2′,3′-dihydrospiro[cyclohexane-1,1′-indene]-4-carboxylic acid], for which the IC50 in experiment [1] (Homo sapiens, NCI-H929, 48 h) was found to be 12400 nM. Further, the Ki at Mcl-1 protein turned out to be 317 nM.
For `Cc1c[nH]c2cccc(OCCC[C@@H]3Cc4ccccc4[C@]34CC[C@@](Nc3cccc(Cl)c3)(C(=O)O)CC4)c12` [Example 483, (1r,2′R,4R)-4-(3-chloroanilino)-2′-{3-[(3-methyl-1H-indol-4-yl)oxy]propyl}-2′,3′-dihydrospiro[cyclohexane-1,1′-indene]-4-carboxylic acid], the IC50 in experiment [1] (Homo sapiens, NCI-H929, 48 h) is 4170 nM. In addition, on Mcl-1 protein, the inhibitory constant (Ki) turned out to be 174 nM.
Take `Cc1c[nH]c2cccc(OCCC[C@H]3Cc4ccccc4[C@]34CC[C@@](Nc3cccc(Cl)c3)(C(=O)O)CC4)c12` [Example 484, (1r,2′S,4S)-4-(3-chloroanilino)-2′-{3-[(3-methyl-1H-indol-4-yl)oxy]propyl}-2′,3′-dihydrospiro[cyclohexane-1,1′-indene]-4-carboxylic acid]: the IC50 in experiment [1] (Homo sapiens, NCI-H929, 48 h) was found to be 9640 nM. Further, the Ki on Mcl-1 protein is 759 nM.
For the compound `CC(C)C(COc1ccnc2ccsc12)CC1Cc2ccccc2C12CCC(Nc1cccc(Cl)c1)(C(=O)O)CC2` (stereo not shown) [Example 525, (1r,4r)-4-(3-chloroanilino)-2′-(3-methyl-2-{[(thieno[3,2-b]pyridin-7-yl)oxy]methyl}butyl)-2′,3′-dihydrospiro[cyclohexane-1,1′-indene]-4-carboxylic acid], the IC50 in experiment [1] amounted to 2490 nM. The Ki on Mcl-1 protein was 293 nM.
Consider `CC[C@H](COc1ccnc2ccsc12)C[C@@H]1Cc2ccccc2[C@]12CC[C@@](Nc1cccc(Cl)c1)(C(=O)O)CC2` [Example 536, (1r,2′R,4R)-4-(3-chloroanilino)-2′-[(2S)-2-{[(thieno[3,2-b]pyridin-7-yl)oxy]methyl}butyl]-2′,3′-dihydrospiro[cyclohexane-1,1′-indene]-4-carboxylic acid], for which, in experiment [1] (Homo sapiens, NCI-H929, 48 h), the IC50 came to 17200 nM. Also, on Mcl-1 protein, the Ki is 2100 nM.
For `CC[C@H](COc1ccnc2ccsc12)C[C@H]1Cc2ccccc2[C@]12CC[C@@](Nc1cccc(Cl)c1)(C(=O)O)CC2` [Example 537, (1r,2′S,4S)-4-(3-chloroanilino)-2′-[(2S)-2-{[(thieno[3,2-b]pyridin-7-yl)oxy]methyl}butyl]-2′,3′-dihydrospiro[cyclohexane-1,1′-indene]-4-carboxylic acid] the same measures were 16000 nM and 575 nM.
Turning to `O=C(O)[C@]1(Nc2cccc(Cl)c2)CC[C@@]2(CC1)c1ccccc1C[C@@H]2C[C@@H](COc1ccnc2ccsc12)c1ccccc1` [Example 545, (1r,2′S,4S)-4-(3-chloroanilino)-2′-{(2R)-2-phenyl-3-[(thieno[3,2-b]pyridin-7-yl)oxy]propyl}-2′,3′-dihydrospiro[cyclohexane-1,1′-indene]-4-carboxylic acid], the IC50 in experiment [1] (Homo sapiens, NCI-H929, 48 h) was determined as 8920 nM. Further, the Ki on Mcl-1 protein amounted to 3490 nM.
With `O=C(O)[C@]1(Nc2cccc(Cl)c2)CC[C@@]2(CC1)c1ccccc1C[C@H]2C[C@H](COc1ccnc2ccsc12)c1ccccc1` [Example 546, (1r,2′R,4R)-4-(3-chloroanilino)-2′-{(2S)-2-phenyl-3-[(thieno[3,2-b]pyridin-7-yl)oxy]propyl}-2′,3′-dihydrospiro[cyclohexane-1,1′-indene]-4-carboxylic acid], in experiment [1] (Homo sapiens, NCI-H929, 48 h), the IC50 stood at 30000 nM. The Ki on Mcl-1 protein worked out at 1640 nM.

(Values after patent publication US20240150293A1, “SPIROCYCLOHEXANE DERIVATIVES, PHARMACEUTICAL COMPOSITIONS CONTAINING THEM AND THEIR USES AS ANTI-APOPTOTIC INHIBITORS” (LES LABORATOIRES SERVIER, priority 2021, published 2024).)
